Laboratory results reported in the supplement of paper PMC10307832.

Tests used:
Experiment in all cases: relative viability (nuclei count vs DMSO), 5 days (fraction); higher = more cells survive
[1] = compound: O[C@H]1CC[C@H](Nc2ncc3nc(Nc4c(F)cc(F)cc4F)n([C@H]4CCOC4)c3n2)CC1 [Tanzisertib] + CS(=O)(=O)N1CCN(Cc2cc3nc(-c4cccc5[nH]ncc45)nc(N4CCOCC4)c3s2)CC1 [Pictilisib] (partner 1 µM)
Procedure, shortened: (§1)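 Relative viability was taken as the ratio of nuclei in treated wells to nuclei in vehicle wells. Lung cancer cell lines in 1536-well plates received compounds by pin tool one day after seeding, either one drug alone or a fixed anchor-drug dose plus five library-drug doses (not always all listed) in √10 steps. Nuclei were counted on 4× images after 5 days of treatment, and values are medians of duplicate plates.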

[2] = compound: C[C@@H](N)c1ccc(C(=O)Nc2ccnc3[nH]ccc23)cc1 + COc1cccc2cc(-c3nc([C@H]4CC[C@H](C(=O)O)CC4)n4ncnc(N)c34)[nH]c12 [OSI-027] (partner 0.5 µM)
Procedure, shortened: as §1

[3] = compound: O[C@H]1CC[C@H](Nc2ncc3nc(Nc4c(F)cc(F)cc4F)n([C@H]4CCOC4)c3n2)CC1 [Tanzisertib] + O=C(c1cc(Cc2n[nH]c(=O)c3ccccc23)ccc1F)N1CCN(C(=O)C2CC2)CC1 [Olaparib] (partner 8 µM)
Procedure, shortened: as §1

[4] = compound: C[C@@H](N)c1ccc(C(=O)Nc2ccnc3[nH]ccc23)cc1 + O=C(c1cc(Cc2n[nH]c(=O)c3ccccc23)ccc1F)N1CCN(C(=O)C2CC2)CC1 [Olaparib] (partner 8 µM)
Procedure, shortened: as §1

Cell Line	relative viability ([1]; first compound 0.08 µM)	relative viability ([1]; first compound 0.253 µM)	relative viability ([1]; first compound 0.8 µM)	relative viability ([1]; first compound 2.53 µM)	relative viability ([1]; first compound 8 µM)	relative viability ([2]; first compound 0.04 µM)	relative viability ([2]; first compound 0.1265 µM)	relative viability ([2]; first compound 0.4 µM)	relative viability ([2]; first compound 1.265 µM)	relative viability ([2]; first compound 4 µM)	relative viability ([3]; first compound 0.08 µM)	relative viability ([3]; first compound 0.253 µM)	relative viability ([3]; first compound 0.8 µM)	relative viability ([3]; first compound 2.53 µM)	relative viability ([3]; first compound 8 µM)	relative viability ([4]; first compound 0.04 µM)	relative viability ([4]; first compound 0.1265 µM)	relative viability ([4]; first compound 1.265 µM)	relative viability ([4]; first compound 0.4 µM)	relative viability ([4]; first compound 4 µM)
NCI-H1993	0.875	0.873	0.774	1.09	0.844	0.529	0.556	0.574	0.577	0.603	0.985	0.928	1.17	1.04	0.766	1.4	1.14	1.02		
HCC-827	0.876	0.937	1.14	0.885	0.536	0.849	0.873	0.844	0.922	0.764	0.616	0.716	0.711	0.54	0.355		0.764	0.739	0.834	0.542
NCI-H650	0.843	0.825	0.858	0.957	0.963		0.508	0.503	0.488	0.421	0.373	0.391	0.359	0.426	0.391		0.385		0.433	0.325
CAL-12T	0.416	0.468	0.438	0.485	0.353	1.19	0.784	0.928	0.3	0.78	0.731	0.767	0.567	0.641	0.844	0.702	0.882	0.841	0.815	0.724
NCI-H838	0.564	0.424	0.493	0.536	0.493	0.395	0.45	0.413	0.339	0.253	0.823	0.756	0.741	0.725	0.788	0.789	0.826	0.397	0.658	0.283
NCI-H2228	0.499	0.444	0.32	0.291	0.367	0.581	0.618	0.65	0.786	0.543	0.579	0.506	0.556	0.788	0.496	0.535	0.726	0.917	0.714	0.771
RERF-LC-KJ	0.634	0.606	0.571	0.511	0.458	0.555	0.628	0.591	0.672	0.6	0.997	0.925	0.942	0.94	0.912	0.879	0.906	0.934	0.894	0.86
NCI-H661	0.464	0.389	0.365	0.447	0.35	0.754	0.682	0.636	0.593	0.552	0.807	0.756	0.74	0.786	0.724	0.734	0.722	0.706	0.895	0.597
HCC-366	0.138	0.15	0.134	0.128	0.114	0.787	0.847	0.993		1.08		0.319	0.36	0.353	0.308	0.345	0.368	0.447	0.371	0.389
SK-LU-1	0.58	0.539	0.565	0.633	0.527	0.37	0.356	0.365	0.385	0.359	0.502	0.538	0.453	0.491	0.373	0.459	0.446	0.321	0.436	0.376
HCC-44	0.638	0.701	0.565	0.442	0.569	0.37	0.433	0.644	0.19	0.482	0.99	1.08	0.965	1.03	1.11	0.949	0.966	1.05	0.966	0.889
A-427	0.822	0.728	0.704	0.683	0.606	0.407	0.392	0.509		0.466	0.783	0.66	0.811	0.877	0.782	0.698	0.817	0.589	0.762	0.649
SW 1573	0.63	0.373	0.481	0.584	0.505	0.694	0.604	0.69	0.485	0.485	0.453	0.406	0.475	0.455	0.443	0.534	0.531	0.44	0.446	0.361
NCI-H322M	0.506	0.648	0.591	0.494	0.459	0.656	0.586	0.63		0.706	0.805	0.836	0.762	0.89	0.726	0.862	0.944	1.01	0.901	0.979
ABC-1	0.906	0.837	0.686	0.764	0.785	0.502	0.603	0.559		0.511	0.838	0.757	0.634	0.701	0.792	0.511	0.752	0.953	0.942	0.693
LK-2	0.515	0.578	0.477	0.463	0.435	0.295	0.176	0.212		0.249	0.772	0.835	0.712	0.669	0.769	0.732	0.658	0.482	0.746	0.864
NCI-H2023	0.259	0.197	0.246	0.243	0.233	0.475	0.435	0.569	0.476	0.509	0.523	0.47	0.497	0.44	0.452	0.534	0.497	0.503	0.516	0.495
